Laboratory results as given in patent US12144351B2, “Herbicidal mixtures comprising L-glufosinate and their use in corn cultures” (priority 2017, dated 2024).

Tests used:
Assay in all cases: Post emergence treatment, greenhouse pot test, herbicidal activity
Assay type in all cases: in vivo
Settings in all cases: scale 0 to 100
AVEFA (Avena fatua) = tested on: AVEFA (Avena fatua)
Procedure: (§1) The analysis of synergism or antagonism between the mixtures or compositions was determined using Colby's equation.
(§2) The culture containers used were plastic flowerpots containing loamy sand with approximately 3.0% of humus as the substrate. The seeds of the test plants were sown separately for each species and/or resistant biotype. […] The containers were irrigated gently to promote germination and growth and subsequently covered with transparent plastic hoods until the plants had rooted. This cover caused uniform germination of the test plants, unless this had been impaired by the active ingredients. […] For this purpose, the test plants were either sown directly and grown in the same containers, or they were first grown separately as seedlings and transplanted into the test containers a few days prior to treatment. Depending on the species, the plants were kept at 10-25° C. or 20-35° C., respectively. The test period extended to 20 days after treatment. During this time, the plants were tended, and their response to the individual treatments was evaluated. The evaluation was carried out by using a scale from 0 to 100. 100 means no emergence of the plants or complete destruction of at least the above-ground parts, and 0 means no damage, or normal course of growth. Data shown are the mean of two replications.

SETVI (Setaria viridis) = tested on: SETVI (Setaria viridis)
Procedure: as §1, §2

[1] = tested on: CHEAL (Chenopodium album)
Procedure: as §1, §2

[2] = tested on: ABUTH (Abutilon theophrasti)
Procedure: as §1, §2

[3] = tested on: COMBE (Commelina benghalensis)
Procedure: as §1, §2

KCHSC (Kochia scoparia) = tested on: KCHSC (Kochia scoparia)
Procedure: as §1, §2

[4] = tested on: ECHCG (Echinochloa crus-galli)
Procedure: as §1, §2

[5] = 2,4-D as dimethylammonium salt 70 g ai/ha
[6] = 2,4-D as dimethylammonium salt 140 g ai/ha

## CNC.O=C(O)COc1ccc(Cl)cc1Cl [2,4-D as dimethylammonium salt, 2,4-D dimethylammonium salt]
AVEFA (Avena fatua); [5]
  Herbicidal activity against AVEFA, Found: 0
AVEFA (Avena fatua); [6]
  Herbicidal activity against AVEFA, Found: 0
SETVI (Setaria viridis); [5]
  Herbicidal activity against SETVI, Found: 0
SETVI (Setaria viridis); [6]
  Herbicidal activity against SETVI, Found: 0

## CCc1cccc(C)c1N(C(=O)CCl)[C@@H](C)COC [S-Metolachlor, S-metolachlor]
[1]; S-Metolachlor 500 g ai/ha
  Herbicidal activity against CHEAL, Found: 20
[1]; S-Metolachlor 1000 g ai/ha
  Herbicidal activity against CHEAL, Found: 75

## CP(=O)(O)CC[C@H](N)C(=O)O [L-Glufosinate, (2S)-2-amino-4-[hydroxy(methyl)phosphinoyl]butyric acid]
[2]; L-Glufosinate 75 g ai/ha
  Herbicidal activity against ABUTH, Found: 0
[2]; L-Glufosinate 150 g ai/ha
  Herbicidal activity against ABUTH, Found: 55
[2]; L-Glufosinate 200 g ai/ha
  Herbicidal activity against ABUTH, Found: 65
AVEFA (Avena fatua); L-Glufosinate 75 g ai/ha
  Herbicidal activity against AVEFA, Found: 0
AVEFA (Avena fatua); L-Glufosinate 150 g ai/ha
  Herbicidal activity against AVEFA, Found: 0
[3]; L-Glufosinate 100 g ai/ha
  Herbicidal activity against COMBE, Found: 0

## Dicamba dimethylammonium salt [Dicamba as dimethylammonium salt]
SETVI (Setaria viridis); Dicamba as dimethylammonium salt 35 g ai/ha
  Herbicidal activity against SETVI, Found: 0
SETVI (Setaria viridis); Dicamba as dimethylammonium salt 70 g ai/ha
  Herbicidal activity against SETVI, Found: 0
SETVI (Setaria viridis); Dicamba as dimethylammonium salt 140 g ai/ha
  Herbicidal activity against SETVI, Found: 30

## COC[C@H](C)N(C(=O)CCl)c1c(C)csc1C [Dimethenamid-P]
KCHSC (Kochia scoparia); Dimethenamid-P 500 g ai/ha
  Herbicidal activity against KCHSC, Found: 0
KCHSC (Kochia scoparia); Dimethenamid-P 1000 g ai/ha
  Herbicidal activity against KCHSC, Found: 70

## bicyclopyrone
[3]; Bicyclopyrone 1 g ai/ha
  Herbicidal activity against COMBE, Found: 0
[3]; Bicyclopyrone 2 g ai/ha
  Herbicidal activity against COMBE, Found: 10
[4]; Bicyclopyrone 1 g ai/ha
  Herbicidal activity against ECHCG, Found: 0
[4]; Bicyclopyrone 2 g ai/ha
  Herbicidal activity against ECHCG, Found: 0

## C#CCN1C(=O)C(F)(F)Oc2cc(F)c(-n3c(=O)n(C)c(=S)n(C)c3=O)cc21 [Trifludimoxazin, trifludimoxazin]
[4]; Trifludimoxazin 0.25 g ai/ha
  Herbicidal activity against ECHCG, Found: 10

## CCOCCN(C(=O)CCl)C(=C(C)C)c1ccccc1 [Pethoxamid, pethoxamid]
[2]; Pethoxamid 50 g ai/ha
  Herbicidal activity against ABUTH, Found: 0
[2]; Pethoxamid 100 g ai/ha
  Herbicidal activity against ABUTH, Found: 0
AVEFA (Avena fatua); Pethoxamid 50 g ai/ha
  Herbicidal activity against AVEFA, Found: 0
AVEFA (Avena fatua); Pethoxamid 100 g ai/ha
  Herbicidal activity against AVEFA, Found: 0
